Measured values reported in PubChem BioAssay (NCI).
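These data come from cells grown in 96-well plates and exposed to compound for 48 hours at five concentrations. At the GI50, growth is halved. TGI: total growth inhibition.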

Legend:
Experiment in all cases: growth of human tumour cells (NCI), 48 h
CCRF-CEM leukemia = system: CCRF-CEM leukemia
HS 578T breast = system: HS 578T breast
HT29 colon = system: HT29 colon
K-562 leukemia = system: K-562 leukemia
KM12 colon = system: KM12 colon
MALME-3M melanoma = system: MALME-3M melanoma
MOLT-4 leukemia = system: MOLT-4 leukemia
OVCAR-3 ovarian = system: OVCAR-3 ovarian
SF-539 CNS = system: SF-539 CNS
SW-620 colon = system: SW-620 colon

Row | SMILES | TGI (CCRF-CEM leukemia) | TGI (HS 578T breast) | TGI (HT29 colon) | TGI (K-562 leukemia) | TGI (KM12 colon) | TGI (MALME-3M melanoma) | TGI (MOLT-4 leukemia) | TGI (OVCAR-3 ovarian) | TGI (SF-539 CNS) | TGI (SW-620 colon) | GI50 (CCRF-CEM leukemia) | GI50 (HS 578T breast) | GI50 (HT29 colon) | GI50 (K-562 leukemia) | GI50 (KM12 colon) | GI50 (MALME-3M melanoma) | GI50 (MOLT-4 leukemia) | GI50 (OVCAR-3 ovarian) | GI50 (SF-539 CNS) | GI50 (SW-620 colon)
1 | S=c1c2cn[nH]c2nc2scc(-c3ccc(Cl)cc3)n12 | 50.9 µM | 38.8 µM | 32.6 µM | > 100 µM | 28.8 µM | 49.6 µM | 60.1 µM | 47.8 µM | 38.4 µM | 22.3 µM |  |  |  |  |  |  |  |  |  | 
2 | C=C1C(=O)CC2C1CC(=O)/C(C)=C/CCC(C)(O)C2O (stereo not given) | 13.8 µM | 26.5 µM | 26.9 µM | 15.7 µM | 29.8 µM | 3.01 µM | 6.2 µM | 17 µM | > 24.4 µM | > 33.7 µM |  |  |  |  |  |  |  |  |  | 
3 | COc1ccc(N2C(=O)CC(=O)N(NC(=O)C(C)Oc3ccccc3C)C2=S)cc1 (stereo not given) | > 100 µM | > 100 µM | > 100 µM | > 100 µM | > 100 µM | > 100 µM | > 100 µM | > 100 µM | > 100 µM | > 100 µM |  |  |  |  |  |  |  |  |  | 
4 | CN1CCOC1c1ccccc1O (stereo not given) | > 100 µM | > 100 µM | > 100 µM | > 100 µM | > 100 µM | > 100 µM | > 100 µM | > 100 µM | > 100 µM | > 100 µM |  |  |  |  |  |  |  |  |  | 
5 | COc1ccc(C2OC(c3ccncc3)=NN2C)cc1F (stereo not given) | > 100 µM | > 100 µM | > 100 µM | > 100 µM | > 100 µM | > 100 µM | > 100 µM | > 100 µM | > 100 µM | > 100 µM |  |  |  |  |  |  |  |  |  | 
6 | N[C@@H](Cc1ccccc1)C(=O)N1CCC[C@@H]1P(=O)(Oc1ccccc1)Oc1ccccc1 | > 100 µM | > 100 µM | > 100 µM | > 100 µM | > 100 µM | > 100 µM | > 100 µM | > 100 µM | > 100 µM | > 100 µM |  |  |  |  |  |  |  |  |  | 
7 | C[n+]1c(/C=C/c2c(O)ccc3ccccc23)ccc2ccccc21 | 17.3 µM | 21.5 µM | 7.63 µM | 13.4 µM | 11.2 µM | 12.7 µM | 23.4 µM | 8.38 µM | 13.9 µM | 16.1 µM | 2.38 µM | 5.3 µM | 2.04 µM | 2.22 µM | 4.33 µM | 5.3 µM | 7.01 µM | 2.29 µM | 6.4 µM | 6.06 µM
8 | BrC(=C(c1ccc(OC2CCCCO2)cc1)c1ccc(OC2CCCCO2)cc1)c1ccccc1 (stereo not given) | > 100 µM | > 100 µM | > 100 µM | > 100 µM | > 100 µM | > 100 µM | > 100 µM | > 100 µM | > 100 µM | > 100 µM |  |  |  |  |  |  |  |  |  | 
9 | O=C(CCn1ccnc1[N+](=O)[O-])NCCCn1ccnc1[N+](=O)[O-] | > 100 µM | > 100 µM | > 100 µM | > 100 µM | > 100 µM | > 100 µM | > 100 µM | > 100 µM | > 100 µM | > 100 µM |  |  |  |  |  |  |  |  |  | 
10 | CC1=CCC([C@@](C)(O)CCCC(C)(C)N=C=S)CC1 (stereo not given in full) | 48.9 µM | 55.4 µM | 32.9 µM | 42.4 µM | 29.5 µM | 28.3 µM | 50.5 µM | 32.6 µM | 33.3 µM | 32.6 µM |  |  |  |  |  |  |  |  |  | 
11 | O=C1NC2c3c(I)sc(I)c3C(O)C2O1 (stereo not given) | > 100 µM | > 100 µM | > 100 µM | > 100 µM | > 100 µM | > 100 µM | > 100 µM | > 100 µM | > 100 µM | > 100 µM |  |  |  |  |  |  |  |  |  | 
12 | CCOC(=O)c1cccc(N=Nc2nc[nH]c2/C=C/C(=O)OC)c1 | > 100 µM | > 100 µM | > 100 µM | > 100 µM | > 100 µM | 71.8 µM | 40.2 µM | > 100 µM | > 100 µM | > 100 µM |  |  |  |  |  |  |  |  |  | 
13 | NC(=O)c1c(NC(=O)c2ccccc2)sc2c1CCC(=O)C2 | > 100 µM | 6.97 µM | > 100 µM | > 100 µM | 5.61 µM | 5.53 µM | 8.3 µM | 2.72 µM | 3.27 µM | 2.93 µM | 0.37 µM | 1.2 µM | 2.33 µM | 0.402 µM | 1.36 µM | 2.14 µM | 1.12 µM | 1.02 µM | 0.75 µM | 0.352 µM
14 | O=[N+]([O-])C(=C(Nc1ccccc1)Nc1ccccc1)C(Cl)=C(Cl)Cl | 28.1 µM | 55.5 µM | 34.6 µM | 33.4 µM | > 55.5 µM | 41.9 µM | 1.09 µM | 33.5 µM | 35.4 µM | 30.9 µM |  |  |  |  |  |  |  |  |  | 
15 | CC1(C)[C@@H]2CC[C@@]1(C)CN(CCC[N+](C)(C)C)C2 | > 100 µM | > 100 µM | > 100 µM | > 100 µM | > 100 µM | > 100 µM | > 100 µM | > 100 µM | > 100 µM | > 100 µM |  |  |  |  |  |  |  |  |  | 
16 | CCN1CN(c2ccccc2)C2(CCN(CC3COc4ccccc4O3)CC2)C1=O (stereo not given) | 83.3 µM | 60.2 µM | 46.7 µM | > 100 µM | 36.5 µM | 36 µM | 57.6 µM | > 100 µM | 33.3 µM | > 100 µM |  |  |  |  |  |  |  |  |  | 
